Legend:
5′-TGTGAACA-3′ = experiment: DNase I footprint titrations; details: single base pair mismatch sequence
5′-TGGAACA-3′ = experiment: DNase I footprint titration; details: formal match sequence
5′-TGTAACA-3′ = experiment: DNase I footprint titration

Row | Structure (SMILES) | Ka (5′-TGTGAACA-3′) | equilibrium association constant Ka (5′-TGGAACA-3′) | reduction of affinity of the 5′-TGTAACA-3′ complex relative to ImPyPyPyPy-γ-ImPyPyPyPy-β-Dp (5′-TGTAACA-3′) | free energy difference (5′-TGTAACA-3′; 5′-TGTAACA-3′ complexes) | equilibrium association constant Ka (5′-TGTAACA-3′; pH 7.0, 22° C.)
1 | CN(C)CCCNC(=O)CCNC(=O)c1cc(NC(=O)c2cc(NC(=O)CCNC(=O)c3cc(NC(=O)c4cc(NC(=O)c5nc(NC(=O)CCCNC(=O)c6cc(NC(=O)c7cc(NC(=O)c8cc(NC(=O)CCNC(=O)c9cc(NC(=O)c%10nccn%10C)cn9C)cn8C)cn7C)cn6C)cn5C)cn4C)cn3C)cn2C)cn1C | < 1e+09 M⁻¹ |  |  |  | 
2 | CN(C)CCCNC(=O)CCNC(=O)c1cc(NC(=O)c2cc(NC(=O)c3cc(NC(=O)c4cc(NC(=O)c5nc(NC(=O)CCCNC(=O)c6cc(NC(=O)c7cc(NC(=O)c8cc(NC(=O)c9nc(NC(=O)c%10nccn%10C)cn9C)cn8C)cn7C)cn6C)cn5C)cn4C)cn3C)cn2C)cn1C [ImImPyPyPy-γ-ImPyPyPyPy-β-Dp] |  | 3.6×10^9 m^−1 | > 300 fold | at least 4 kcal/mol | < 1e+07 M⁻¹

From patent US6555692B1, “Preparation and use of bifunctional molecules having DNA sequence binding specificity” (California Institute of Technology, priority 1996, dated 2003)
